Assay results as given in publication PMC6614837 (Nucleic Acids Research, 2019).
Entries after “also recorded” stand apart in the source; their conditions may differ.

Experiments:
[1] = target: T1, RNase P holoenzyme from Thermotoga maritima (Thermotoga maritima, UniProt Q9X1H4); assay: Real-time fluorescence-based (FRET) RNase P activity assay with minihelix (Mh) substrate; type: biochemical
T1 construct: made in house
T1 sequence (Q9X1H4 1-117): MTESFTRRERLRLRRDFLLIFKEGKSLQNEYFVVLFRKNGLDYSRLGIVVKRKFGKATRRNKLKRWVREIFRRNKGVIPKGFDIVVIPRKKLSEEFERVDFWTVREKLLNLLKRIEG
Description: The reconstitution of the RNase P holoenzyme was performed as described in ([40],[19]). This protocol produces a homogeneous and functional ribozyme that can be crystallized by mixing P RNA and P protein in a 1:1.1 molar ratio in 1× TH buffer (33 mM Tris–HCl, 66 mM HEPES, pH 7.4) and 400 mM ammonium acetate (AmOAc). The mixture was heated to 95°C for 2 min in a water bath, then chilled on ice for 2 min, after which MgCl2 was added to a final concentration of 100 mM. […] This higher concentration was used in all experiments described herein. The holoenzyme was further incubated at 50°C for 10 min and 37°C for 40 min. The final concentration of holoenzyme was 333 nM (35.6 μg/ml of P RNA and 4.7 μg/ml of P protein).
The minihelix (Mh) substrate (Figure 1A) was adopted from a previously characterized RNase P substrate, pMini3bpUG ([32],[33]) and coupled to either Black Hole Quencher 1 (BHQ1) or Black Hole Quencher 2 (BHQ2) at the 5′-end and Alexa Fluor 488 at the 3′-end. This probe was purchased either from Sigma-Aldrich or Integrated DNA Technologies (IDT). A requested scale of […] yielded between 6.3 and 20 nmol (57.5 to 181 μg, enough for 1300–4000 reactions depending on the experimental substrate concentration). Before use, the minihelix was diluted from a 100 μM stock (dissolved in water) to 3.6 μM in activity buffer H (33 mM Tris–HCl, 66 mM HEPES, pH 7.4, 400 mM AmOAc and 100 mM MgCl2).
Reactions were performed in a total volume of 20 μl. Pipetting was done by hand using multichannel pipettes. First, an 18 μl reaction mixture containing 16.5 μl of activity buffer (H for Mh or L supplemented with 10% PEG 200 for bipartite pre-tRNA) and 270 nM (Mh) or 135 nM (bipartite pre-tRNA) (1.5 or 0.7 μl of the 3.6 μM stock) of the fluorescent substrate probe was pre-incubated on ice for at least 5 m in a black polystyrene 384-well microtiter microplate with a flat transparent bottom (Corning ref 3540). The holoenzyme was then added at a final concentration of 33 nM (2 μl of a 333 nM stock) in 1× TH buffer and mixed. Kinetic activity was monitored in a Synergy MX Multimode Detector (BioTek) at 37°C with rapid agitation. At least 20 readings were taken per well every 15 s. The probe was excited at 485 nm, and its emission was monitored at 535 nm with an integration time of 1 s. From the plots of relative fluorescent units (RFU) versus time, linear regression was used to determine the slopes in the linear portion of the curves, using at least 12 data points to obtain initial velocities. Non-linear fitting to obtain the Michaelis–Menten parameters was performed using GraphPad Prism® 6.01 software.
Supplementary Figure 3. FRET assays of RNase P with the fluorescent substrate are reproducible. (A) Representative plots of kinetic assays performed in a single run. The standard assay (SA), (+), was performed at 37° C in a total volume of 20 µL and contained RNase P holoenzyme at 33 nM, substrate minihelix (Mh) at 270 nM, 10% DMSO and activity buffer (AB).
The negative control assay (-) contained 100 mM CaCl2 in place of MgCl2. Ten to twelve wells were monitored simultaneously in a typical assay. (B) Zoomed view of the linear region of the kinetic assays shown in panel A. Fluorescence readings were performed every 15-20 seconds.
Linear regression calculations were done using the GraphPad Prism 7 software. (C) The coefficient Z’-factor (1) was used as an indicator of reproducibility and was calculated based on the relative fluorescence units (RFU) in the plateau phase (taken at 20 minutes). The Z’-factor has a […]
presented in this work were either measured in triplicate or confirmed in subsequent assays. (D) […]
assay is robust. The IC50 values reported in Figures 1C and 2 were calculated according to this kinetic parameter. There is a negative drift in fluorescence in the case of the negative control.
However, it should be noted that the mean value of it (-279) is much smaller than the signal of the […]
positive control (3397). […]

RNase P from E. coli = test system: RNase P from E. coli; design: method as in PMID 24097434; conditions: cited from earlier work
[2] = target: T2, RNase P protein (TmP, P protein) (Thermotoga maritima, UniProt Q9X1H4 1-117); assay: BLI; conditions: BLI (Octet RED96): 20 mM HEPES pH 7.4, 100 mM ammonium acetate, 10 mM MgCl2, 2.5-5% DMSO, 30 C; P protein:P RNA in 33 mM Tris, 66.6 mM HEPES, 200 mM ammonium …
T2 sequence: T1 sequence (Q9X1H4 1-117)

P protein = target: T3, P protein (Thermotoga maritima, UniProt Q9X1H4); assay: Binding hindrance of the 5′ RNA leader to the P protein (BLI); design: species or system T. maritima; conditions: compound 100 μM, 5′ RNA leader 5 μM
T3 construct: GST (cleaved yes); made in house; host or cells: E. coli BL21(DE3)pLysS
T3 sequence (Q9X1H4 1-117): T1 sequence (Q9X1H4 1-117)
Description: A 5′ RNA leader sequence with 10-bases 5′-GGAAAAAGAU-3′ was purchased from IDT and used at a concentration of 5 μM. This sequence is the same used to obtain the crystal structure of the RNase P holoenzyme ([19]). The His-tagged P protein was immobilized on Ni-NTA biosensors at 0.05 mg/ml (3.4 μM). […] The steps performed on the assay and their periods were: P protein immobilization (400 s), wash (100 s), baseline […] (1000 rpm), compound association (800 s), compound dissociation (200 s) (500 rpm), baseline (100 s), 5′ leader association (200 s), 5′ leader dissociation (200 s) (1000 rpm). The assay was performed at 30°C. The compounds were used at 100 μM throughout. All assay steps were performed in 20 mM HEPES pH 7.4, 100 mM ammonium acetate, 10 mM MgCl2, 5% DMSO.
5 ′ RNA leader. (A) Experimental design of 5′ RNA leader binding hindrance experiments. Figures B-F are based on the analysis region depicted in panel A, where association and dissociation of the 5′ RNA leader to the P protein (TmP) is measured over time. P protein at 3.5 µM was immobilized on Ni-NTA biosensors for 300 s, while compounds were assayed at 100 µM and the […]
binding, in contrast with hematein (E) and purpurin (F).
(1 picture or pasted object on this page, not shown here)

minihelix (Mh) = assay: Biolayer interferometry binding to biotinylated minihelix substrate; conditions: BLI
Description: 3′-Biotinylated minihelix was purchased from Integrated DNA Technologies (IDT) (24-mer RNA sequence, 5′-[…]-3′-Biotin). The biotinylated minihelix was immobilized on Super Streptavidin (SSA) biosensors at a concentration of 10 μM. […] For the titration experiments, 10 μM of 3′-biotinylated minihelix was immobilized for 300 s on Super Streptavidin (SSA) biosensors, followed by a wash step of 100 s and association and dissociation steps of 200 s in the presence of 6 different concentrations of compound ranging from 500 to 15.6 μM. SSA biosensors with no minihelix were used to measure non-specific binding of compounds. All other parameters (buffer, instrument control, analysis) are as described above.
Supplementary Figure 16. Binding assays monitor the interaction of compounds with the minihelix (Mh). Gentian violet and methylene blue bind in a dose-dependent relationship to the artificial minihelix substrate. […]
interaction between the minihelix and (A) gentian violet (KD=8 µM ) and (B) methylene blue A 3′-biotinylated substrate minihelix at 10 µ M was immobilized on super streptavidin (SSA) biosensors for 300 s.
Supplementary Figure 17. pre-tRNA displaces bound purpurin in a dose-response […]
indicating a true competition between purpurin and pre-tRNA binding sites. […]

RNase P holoenzyme = target: T4, RNase P holoenzyme (Thermotoga maritima, UniProt Q9X1H4); assay: Displacement of pre-tRNA from the holoenzyme (BLI); type: binding, T. maritima; conditions: holoenzyme on Ni-NTA biosensors, compound 0–400 μM, then pre-tRNA
T4 construct: GST (cleaved yes); made in house; host or cells: E. coli BL21(DE3)pLysS
T4 sequence (Q9X1H4 1-117): T1 sequence (Q9X1H4 1-117)
Description: (§1) Real-time binding assays of the holoenzyme, P RNA, P protein, the substrate minihelix and the 5′-leader to individual compounds were performed by biolayer interferometry using an Octet RED96 system (ForteBio). For the holoenzyme or P RNA, a 5′ biotinylated RNA oligonucleotide with the sequence 5′biotin-CAUUCCAGACGAU was immobilized on Super Streptavidin (SSA) biosensors. Then, a modified P RNA or holoenzyme was added. The P RNA modification consisted of a sequence with part of the P1 stem sequence complementary to the biotinylated oligonucleotide (AUCGUCUGGA) (Supplementary Figure S23A). P1 is far from the active site or other regions involved in specific interactions (Supplementary Figure S23B) ([19]). The activity of this construct was indistinguishable from the wild-type holoenzyme. Alternatively, the holoenzyme was immobilized through the His-tagged P protein from T. maritima at 0.05 mg/ml (3.4 μM) on Ni-NTA biosensors. Control biosensors were used to subtract non-specific binding of compounds to the biosensor surface. All assay steps (immobilization, wash, baseline, association, and dissociation) were performed in 20 mM HEPES pH 7.4, 100 mM ammonium acetate, 10 mM MgCl2, 2.5% DMSO. The assays were performed on black bottom 96-well microplates (Greiner Bio-One 655209) in a total volume of 200 μl, at 30°C with orbital shaking at 1000 rpm. Experiments were controlled with the software Data Acquisition 8.2 (ForteBio, Inc.). Kinetic binding parameters were calculated using Data Analysis 8.2 (ForteBio, Inc.). After subtraction of reference biosensors, the binding curves were aligned to the X- and Y-axis and the association-dissociation inter-step curve in order to get a common baseline for the association and dissociation phases.
Figure 4. Characterization of the inhibition of T. maritima RNase P by purpurin. (A) Best global fit for inhibition of RNase P in the presence of varying concentrations of fluorescent Mh substrate. […] Symbols represent the mean ± standard error as determined from three independent experiments at each concentration. See also Supplementary Figure S18. […] Binding sensorgrams obtained by biolayer interferometry (BLI). RNase P holoenzyme at 400 nM was immobilized on Ni-NTA. […] Binding sensorgrams obtained by biolayer interferometry (BLI). RNase P holoenzyme was immobilized on Ni-NTA biosensors, incubated with purpurin at varying concentrations (0–400 μM), and then the association and dissociation pre-tRNA was monitored. […] See also Supplementary Figure S17.

P RNA [3] = assay: Gel-based activity assay, bipartite pre-tRNA substrate, P RNA alone; type: biochemical, T. maritima; conditions: 100 mM AmOAc, 10 mM MgCl2
Description: For gel-based activity assays, reactions were prepared as described in the previous section (fluorescence activity assay), incubated for 1–15 min at 37–50°C, then loaded onto a denaturing 7 M urea–20% acrylamide gel in the case of the Mh substrate or 19% acrylamide (40% acrylamide/bisacrylamide 38.5:1.5) for the bipartite pre-tRNA substrate. The activity conditions for the gel reported in Figure 3A, to monitor the cleavage of the holoenzyme and P RNA, were under 100 mM AmOAc and 10 mM MgCl2. The gels (13 × 16 × 0.15 cm) were electrophoresed at 20 V/cm for 2–3 h. UV shadowing or ethidium bromide staining was used to visualize RNA cleavage. Detection of minihelix fluorescence was achieved without staining using a UV lamp with excitation at ∼254 nm.
Figure 3. The inhibitors purpurin and hematein bind to the holoenzyme. (A) Top. […] Bottom. […] (B) The relative affinities of the inhibitors for the P RNA or the holoenzyme differ. Binding sensorgrams obtained by biolayer interferometry (BLI). P RNA or RNase P holoenzyme was immobilized on super streptavidin (SSA) biosensors through a 5′-biotinylated RNA oligonucleotide complementary to a region on the P1 stem of P RNA (see Materials and Methods). […] In contrast, gentian violet binds not only to P RNA but also to the Mh substrate (Supplementary Figure S16). (C) Molecular Dynamics (MD) simulations of RNase P protein in complex with the validated inhibitors. In each panel, semitransparent spheres represent the geometric center, over a 200 ns trajectory, of the corresponding tested compound. The 5′-leader (yellow) is shown for reference purposes only; it was not included in the simulation. Sphere color coding indicates the starting and final positions in blue and red, respectively. […] Purpurin's starting conformation corresponds to that observed in the crystal structure in complex with the P protein (PDB code: 6MAX. See Figure 5).

P RNA [4] = assay: Biolayer interferometry binding to immobilized P RNA; design: species or system T. maritima; conditions: BLI, P RNA on SSA biosensors via biotinylated oligonucleotide
Description: as §1
Figure 3. The inhibitors purpurin and hematein bind to the holoenzyme. (A) Top. […] Bottom. […] (B) The relative affinities of the inhibitors for the P RNA or the holoenzyme differ. Binding sensorgrams obtained by biolayer interferometry (BLI). […]

Mh: 24-nucleotide minihelix RNase P model substrate with 5′ Black Hole Quencher and 3′ Alexa Fluor 488 (GAUCUGAAUGCGGAAACGCGCCAC; 5' BHQ quencher, 3' Alexa Fluor 488, further chemistry not given here)
kcat ([1]; Michaelis–Menten fit): 6.7 min⁻¹
Km ([1]; holoenzyme 11 nM, Michaelis-Menten fit): 1300 nM
kobs (previously reported) (RNase P from E. coli): 0.86 min⁻¹
Kd (RNase P from E. coli; read-out: KD (previously reported)): 2800 nM

P RNA
Kd [2]: 0.5 nM

CN(C)c1ccc([C+](c2ccc(N(C)C)cc2)c2ccc(N(C)C)cc2)cc1.[Cl-] [Gentian violet, tris(4-(dimethylamino)phenyl)methylium chloride, reference compound]
Hindrance of 5′ RNA leader binding to the P protein (P protein): did not interfere with RNA leader
Hindrance of 5′ RNA leader binding to the P protein (P protein; listed as gentian violet): do not impede the leader binding
Kd (minihelix (Mh); 3′-biotinylated minihelix 10 μM on SSA biosensors): 8 µM
Binding to the minihelix substrate (minihelix (Mh); initial screening at 1 mM and titration): binding signal; also recorded: binds to the biotinylated minihelix substrate in the micromolar range
Dose–response displacement of pre-tRNA (RNase P holoenzyme): No
Inhibition of the P RNA reaction (P RNA [3]): inhibits the reaction via P RNA
Binding to P RNA (P RNA [4]): binds more strongly to it
